Where “and” joins values, the source holds several entries; their conditions need not be identical. Equal values may be shown once. Read-outs that look alike come from different tables or passages of the source.
Experiments:
SW480 cells = assay: Cell growth assay (CellTiter-Glo 2.0), SW480 MSS cell line; details: read-out: Cell Growth Inhibition GI50 SW480
HCT 116 cells = assay: Cell growth assay (CellTiter-Glo 2.0), HCT 116 MSI-H cell line; details: read-out: Cell Growth Inhibition GI50 HCT-116
Experimental: The effects of compound on cellular viability were determined using the CellTiter-Glo® 2.0 Luminescent Cell Viability Assay (Promega, Madison, WI).
SW480 cells were seeded at 1,000 cells per well in Eagle's Minimum Essential Medium (EMEM) with 10% FBS. Both cell lines were seeded in a volume of 50 μL medium per well. […] The concentration range was adjusted as needed for compounds of different potencies. The cells treated with compounds were incubated for 5 days at 37° C. in 5% CO2. […] The plate was then read on a Clariostar plate reader (BMG Labtech, Cary, NC) in luminescence mode. The previously measured baseline cell viability was subtracted from the luminescence value of each well, and cell viability (% of DMSO) was plotted as a function of log compound concentration. The EC50 was then calculated for each compound using Dotmatics Software (San Diego, CA).

[1] = biological target: hWRN(519-1227)_C-H3CV-GFP-10His (Homo sapiens, UniProt Q14191); assay: Helicase Assay for WRN Inhibition (ATP-dependent, fluorescence based)
Sequence of hWRN(519-1227)_C-H3CV-GFP-10His (Q14191 519-1227): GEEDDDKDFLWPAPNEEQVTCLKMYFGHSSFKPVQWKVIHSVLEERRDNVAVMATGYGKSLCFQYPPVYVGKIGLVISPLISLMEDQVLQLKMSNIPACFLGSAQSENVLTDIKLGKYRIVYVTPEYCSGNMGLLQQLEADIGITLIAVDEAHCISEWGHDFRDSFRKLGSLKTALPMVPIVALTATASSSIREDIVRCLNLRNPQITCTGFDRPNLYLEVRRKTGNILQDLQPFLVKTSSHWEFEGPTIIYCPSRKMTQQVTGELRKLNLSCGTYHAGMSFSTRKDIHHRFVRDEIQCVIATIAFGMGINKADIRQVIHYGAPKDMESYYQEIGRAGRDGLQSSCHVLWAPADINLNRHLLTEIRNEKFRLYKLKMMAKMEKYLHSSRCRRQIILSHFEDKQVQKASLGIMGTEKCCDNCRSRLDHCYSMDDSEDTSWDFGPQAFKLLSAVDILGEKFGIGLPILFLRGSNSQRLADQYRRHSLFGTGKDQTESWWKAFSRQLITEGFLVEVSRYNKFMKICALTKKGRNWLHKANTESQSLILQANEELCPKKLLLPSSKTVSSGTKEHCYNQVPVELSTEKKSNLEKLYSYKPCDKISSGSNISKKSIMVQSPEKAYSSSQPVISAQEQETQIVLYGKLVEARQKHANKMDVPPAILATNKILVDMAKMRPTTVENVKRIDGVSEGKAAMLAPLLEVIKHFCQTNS

[2] = HCT-116 (MSI-H), 5-day incubation
[3] = read-out: WRN Helicase IC50, 30 min preincubation with ATP, 30 min reaction
[4] = WRN Helicase IC50, 30 min preincubation with ATP, 30 min reaction

## 2-cyclopropyl-4-(((1R,2R)-2-fluorocyclohexyl)oxy)-N—((S,E)-4-(methylsulfonyl)but-3-en-2-yl)pyrimidine-5-carboxamide; or 2-cyclopropyl-4-(((1S,2S)-2-fluorocyclohexyl)oxy)-N—((S,E)-4-(methylsulfonyl)but-3-en-2-yl)pyrimidine-5-carboxamide [Example 149]
SW480 cells; SW480 (MSS), 5-day incubation
  GI50: > 10 µM
HCT 116 cells; [2]
  GI50: 2.5 µM
[1]; [3]
  IC50: 7.8 µM

## CS(=O)(=O)C=CC1CN(C(=O)c2cnc(C3CC3)nc2Oc2ccccc2)C1 (racemic) [Example 22, (2-cyclopropyl-4-phenoxypyrimidin-5-yl)(3-(2-(methylsulfonyl)vinyl)azetidin-1-yl)methanone]
SW480 cells; Homo sapiens, SW480, 120 h
  GI50: 6.1 µM
HCT 116 cells; Homo sapiens, HCT-116, 120 h
  GI50: 2.5 µM
[1]
  IC50: 3.5 µM

## CC1C(=CC#N)CN1C(=O)c1cnc(C2CC2)nc1Oc1ccccc1 (racemic) [Example 265, 2-(1-(2-cyclopropyl-4-phenoxypyrimidine-5-carbonyl)-2-methylazetidin-3-ylidene)acetonitrile]
SW480 cells; Homo sapiens, SW480, 120 h
  GI50: > 10 µM
HCT 116 cells; Homo sapiens, HCT-116, 120 h
  GI50: 8.5 µM
[1]
  IC50: 7.2 µM

## CC(F)(F)c1ncc(C(=O)NC(C=CS(C)(=O)=O)C2CC(F)(F)C2)c(Oc2ccccc2)n1 (single isomer, unassigned) [192/193]
SW480 cells; Homo sapiens, SW480, 120 h
  GI50: 24 µM
HCT 116 cells; Homo sapiens, HCT-116, 120 h
  GI50: 0.023 µM

## C=C(C#N)[C@H](C)NC(=O)c1cnc(C(F)(F)C2CC2)nc1Oc1ccccc1 [275/276, (S)—N-(3-cyanobut-3-en-2-yl)-2-(cyclopropyldifluoromethyl)-4-phenoxypyrimidine-5-carboxamide/(R)—N-(3-cyanobut-3-en-2-yl)-2-(cyclopropyldifluoromethyl)-4-phenoxypyrimidine-5-carboxamide]
SW480 cells; SW480 (MSS), 5-day incubation
  GI50: 10 µM and 9.4 µM

## C=C(C#N)[C@@H](NC(=O)c1cnc(C(C)(F)F)nc1Oc1ccccc1)C1CC1 [278/279, (S)—N-(2-cyano-1-cyclopropylallyl)-2-(1,1-difluoroethyl)-4-phenoxypyrimidine-5-carboxamide/(R)—N-(2-cyano-1-cyclopropylallyl)-2-(1,1-difluoroethyl)-4-phenoxypyrimidine-5-carboxamide]
SW480 cells; SW480 (MSS), 5-day incubation
  GI50: 11 µM
HCT 116 cells; [2]
  GI50: 0.35 µM

## CS(=O)(=O)/C=C/CNC(=O)c1cnc(C2CCCC2)nc1Oc1ccccc1 [Example 1, (E)-2-cyclopentyl-N-(3-(methylsulfonyl)allyl)-4-phenoxypyrimidine-5-carboxamide]
HCT 116 cells; Homo sapiens, HCT-116, 120 h
  GI50: 2.1 µM

## CN(C)C(=O)C[C@@H](/C=C/S(C)(=O)=O)NC(=O)c1cnc(C(C)(C)C)nc1Oc1ccccc1 [Example 71, (S,E)-2-(tert-butyl)-N-(5-(dimethylamino)-1-(methylsulfonyl)-5-oxopent-1-en-3-yl)-4-phenoxypyrimidine-5-carboxamide]
SW480 cells; Homo sapiens, SW480, 120 h
  GI50: 41.4 µM
HCT 116 cells; Homo sapiens, HCT-116, 120 h
  GI50: 0.11 µM
[1]; [4]
  IC50: 0.27 µM

## C[C@@H](/C=C/S(C)(=O)=O)NC(=O)c1cnc(C(C)(F)F)nc1Oc1ccccc1 [Example 86, (S,E)-2-(1,1-difluoroethyl)-N-(4-(methylsulfonyl)but-3-en-2-yl)-4-phenoxypyrimidine-5-carboxamide]
SW480 cells; Homo sapiens, SW480, 120 h
  GI50: 41.7 µM
HCT 116 cells; Homo sapiens, HCT-116, 120 h
  GI50: 0.224 µM

## CC(F)(F)c1ncc(C(=O)N[C@H](/C=C/S(C)(=O)=O)CC(F)F)c(Oc2ccccc2)n1 [Example 90, (S,E)-N-(5,5-difluoro-1-(methylsulfonyl)pent-1-en-3-yl)-2-(1,1-difluoroethyl)-4-phenoxypyrimidine-5-carboxamide]
SW480 cells; Homo sapiens, SW480, 120 h
  GI50: 19.2 µM
HCT 116 cells; Homo sapiens, HCT-116, 120 h
  GI50: 0.327 µM
[1]; [4]
  IC50: 0.69 µM

## CC(F)(F)c1ncc(C(=O)N[C@H](/C=C/S(C)(=O)=O)C2CCC(F)(F)CC2)c(Oc2ccccc2)n1 [Example 91, (S,E)-N-(1-(4,4-difluorocyclohexyl)-3-(methylsulfonyl)allyl)-2-(1,1-difluoroethyl)-4-phenoxypyrimidine-5-carboxamide]
SW480 cells; Homo sapiens, SW480, 120 h
  GI50: 26.1 µM
HCT 116 cells; Homo sapiens, HCT-116, 120 h
  GI50: 0.252 µM
[1]; [4]
  IC50: 0.6 µM

## CC(F)(F)c1ncc(C(=O)N[C@H](/C=C/S(C)(=O)=O)COC2CC2)c(Oc2ccccc2)n1 [Example 97, (R,E)-N-(1-cyclopropoxy-4-(methylsulfonyl)but-3-en-2-yl)-2-(1,1-difluoroethyl)-4-phenoxypyrimidine-5-carboxamide]
SW480 cells; Homo sapiens, SW480, 120 h
  GI50: 40 µM
HCT 116 cells; Homo sapiens, HCT-116, 120 h
  GI50: 0.07 µM
[1]; [4]
  IC50: 0.22 µM

## CS(=O)(=O)/C=C/CNC(=O)c1cnc(C2CCCC2)nc1Oc1cccc(F)c1 [Example 111, (E)-2-cyclopentyl-4-(3-fluorophenoxy)-N-(3-(methylsulfonyl)allyl)pyrimidine-5-carboxamide]
SW480 cells; Homo sapiens, SW480, 120 h
  GI50: > 10 µM
HCT 116 cells; Homo sapiens, HCT-116, 120 h
  GI50: 4.2 µM
[1]; [4]
  IC50: 3.8 µM

## CS(=O)(=O)/C=C/CNC(=O)c1cnc(C2CCCC2)nc1Oc1ccc(Cl)cc1 [Example 120, (E)-4-(4-chlorophenoxy)-2-cyclopentyl-N-(3-(methylsulfonyl)allyl)pyrimidine-5-carboxamide]
SW480 cells; Homo sapiens, SW480, 120 h
  GI50: 4.8 µM
HCT 116 cells; Homo sapiens, HCT-116, 120 h
  GI50: 4.3 µM
[1]; [4]
  IC50: 4.9 µM

## [2H]c1c([2H])c([2H])c(Oc2nc(C3CC3)ncc2C(=O)N[C@@H](C)/C=C/S(C)(=O)=O)c([2H])c1[2H] [Example 140]
SW480 cells; Homo sapiens, SW480, 120 h
  GI50: 32 µM
HCT 116 cells; Homo sapiens, HCT-116, 120 h
  GI50: 0.33 µM
[1]; [4]
  IC50: 1.9 µM

## C[C@@H](/C=C/S(C)(=O)=O)NC(=O)c1cnc(C2CC2)nc1OC12CCC(CC1)C2 [Example 143, (S,E)-4-(bicyclo[2.2.1]heptan-1-yloxy)-2-cyclopropyl-N-(4-(methylsulfonyl)but-3-en-2-yl)pyrimidine-5-carboxamide]
SW480 cells; Homo sapiens, SW480, 120 h
  GI50: 13 µM
HCT 116 cells; Homo sapiens, HCT-116, 120 h
  GI50: 3.4 µM
[1]; [4]
  IC50: 14 µM

## CC(F)(F)c1ncc(C(=O)N[C@H](/C=C/S(C)(=O)=O)C2CC2)c(O[C@@H]2C[C@@H]3C[C@@H]3C2)n1 [Example 158, 4-(((1R,3r,5S)-bicyclo[3.1.0]hexan-3-yl)oxy)-N—((S,E)-1-cyclopropyl-3-(methylsulfonyl)allyl)-2-(1,1-difluoroethyl)pyrimidine-5-carboxamide]
SW480 cells; Homo sapiens, SW480, 120 h
  GI50: 40 µM
HCT 116 cells; Homo sapiens, HCT-116, 120 h
  GI50: 0.36 µM
[1]; [4]
  IC50: 1.5 µM

## CC(C)(C)c1ncc(C(=O)NC/C=C/S(C)(=O)=O)c(O[C@H]2C[C@@H]3C[C@@H]3C2)n1 [Example 159, 4-(((1R,3s,5S)-bicyclo[3.1.0]hexan-3-yl)oxy)-2-(tert-butyl)-N—((E)-3-(methylsulfonyl)allyl)pyrimidine-5-carboxamide]
SW480 cells; SW480 (MSS), 5-day incubation
  GI50: 12 µM
HCT 116 cells; [2]
  GI50: 2.5 µM
[1]; [3]
  IC50: 6.9 µM

## CN(C)c1ncc(C(=O)N[C@H](/C=C/S(C)(=O)=O)C2CC2)c(Oc2ccccc2)n1 [Example 177, (S,E)-N-(1-cyclopropyl-3-(methylsulfonyl)allyl)-2-(dimethylamino)-4-phenoxypyrimidine-5-carboxamide]
SW480 cells; Homo sapiens, SW480, 120 h
  GI50: 12 µM
HCT 116 cells; Homo sapiens, HCT-116, 120 h
  GI50: 0.086 µM
[1]; [4]
  IC50: 0.37 µM

## CNc1ncc(C(=O)N[C@H](/C=C/S(C)(=O)=O)C2CC2)c(Oc2ccccc2)n1 [Example 178, (S,E)-N-(1-cyclopropyl-3-(methylsulfonyl)allyl)-2-(methylamino)-4-phenoxypyrimidine-5-carboxamide]
SW480 cells; Homo sapiens, SW480, 120 h
  GI50: 45 µM
HCT 116 cells; Homo sapiens, HCT-116, 120 h
  GI50: 3.2 µM
[1]; [4]
  IC50: 15 µM

## C=C(C#N)[C@H](C)NC(=O)c1cnc(C(C)(F)F)nc1Oc1ccccc1 [Example 273/274, (S)—N-(3-cyanobut-3-en-2-yl)-2-(1,1-difluoroethyl)-4-phenoxypyrimidine-5-carboxamide/(R)—N-(3-cyanobut-3-en-2-yl)-2-(1,1-difluoroethyl)-4-phenoxypyrimidine-5-carboxamide]
SW480 cells; SW480 (MSS), 5-day incubation
  GI50: 16 µM
HCT 116 cells; [2]
  GI50: 0.122 µM

Source: patent US20250188040A1, “PHARMACEUTICAL COMPOSITIONS COMPRISING WRN HELICASE INHIBITORS” (Vividion Therapeutics, Inc., priority 2022, published 2025)
